In patent US6599907B1, “Cystic fibrosis medicaments” (University of Wales College of Medicine, priority 1999, dated 2003):
Read-outs that look alike come from different tables or passages of the source. Marks after values point to notes of the source that are not given here.

Tests used:
cyclic AMP = experiment: Cyclic AMP content of acini (radioimmunoassay); format: cell-based, rat; details: for Cyclic AMP (pmol/mg protein), isoproterenol-stimulated: isoproterenol 10 μM alone or + PDE inhibitor (IBMX, Type III, Type IV 1 mM; Type V 0.2 mM), 5 min, n in parentheses
cyclic GMP = experiment: Cyclic GMP content of acini (radioimmunoassay); format: cell-based, rat; details: for Cyclic GMP (fmol/mg protein), + Isoproterenol (10 μM) / Cyclic GMP (fmol/mg protein), No Isoproterenol: 5 min, IBMX, Types III, IV 1 mM, Type V 0.2 mM, mean±SEM (n)
CFTR [1] = experiment: Correction of CFTR antibody-inhibited β-adrenergic stimulation of mucin secretion in rat submandibular acini; details: acini containing CFTR antibody; isoproterenol 10 μM + PDE inhibitor (Types III, IV 1 mM; Type V 0.2 mM); 30 min; compared with cpt-cyclic AMP 1 mM
rat submandibular acini = experiment: Mucin secretion from rat submandibular acini ([3H]-glucosamine labelled mucin release); details: for Mucin Secretion (% basal), isoproterenol-stimulated: isoproterenol 10 μM alone or + PDE inhibitor (IBMX, Type III, Type IV 1 mM; Type V 0.2 mM), 30 min, n in parentheses; for Mucin secretion % basal: wild type mucin secretion
CFTR [2] = details: acini containing CFTR antibody; 1 mM; 'has been shown'; cited from earlier work
PDE V = PDE V (Homo sapiens, UniProt O76074); experiment: PDE V inhibition; format: biochemical

**Q.** With `C[C@@H]1CC(=O)NN=C1c1ccc(-n2ccc(=O)cc2)cc1` (racemic) [Type III, (R,S)-4,5-dihydro-6-[4-(1,4-dihydro-4-oxopyridin-1-yl)phenyl]-5-methyl-3(2H)-pyridazinone, reference compound] as the compound, how does the “Cyclic AMP (pmol/mg protein), isoproterenol-stimulated” value (from here on “Cyclic AMP (pmol/mg protein)”) (cyclic AMP) read?
**A.** *1009.6 ± 91.5 (6) pmol/mg protein

**Q.** And the “Cyclic GMP (fmol/mg protein), + Isoproterenol (10 μM)” value (“Cyclic GMP … (10 μM)” below) (cyclic GMP)?
**A.** 47.0 ± 1.8 (4) fmol/mg protein

**Q.** And the “Cyclic GMP (fmol/mg protein), No Isoproterenol” value (from here on “Cyclic GMP … No Isoproterenol”) (cyclic GMP)?
**A.** 39.3 ± 2.4 (3) fmol/mg protein

**Q.** What about the “Correction of the defective β-adrenergic secretory response (FIG. 1)” value (from here on “Correction”) (CFTR [1]) of the same compound?
**A.** ineffective

**Q.** And the “Mucin Secretion (% basal), isoproterenol-stimulated” value (shortened to “Mucin Secretion (% basal)”) (rat submandibular acini)?
**A.** 692 ± 238 (6) % basal

**Q.** For `CC(C)Cn1c(=O)n(C)c(=O)c2[nH]cnc21` [IBMX, reference compound], which “Restored secretion, % of the secretion response seen in cells containing an equivalent amount of non-immune IgG” value (CFTR [2]) is on record?
**A.** approx. 75%

**Q.** And the “Cyclic AMP (pmol/mg protein)” value (cyclic AMP)?
**A.** *1252.9 ± 129.6 (6) pmol/mg protein

**Q.** And the “Cyclic GMP … (10 μM)” value (cyclic GMP)?
**A.** **55.6 ± 1.6 (8) fmol/mg protein

**Q.** What about the “Cyclic GMP … No Isoproterenol” value (cyclic GMP) of the same compound?
**A.** 48.1 ± 5.2 (8) fmol/mg protein

**Q.** What about the “Mucin Secretion (% basal)” value (rat submandibular acini) of the same compound?
**A.** 924 ± 290 (6) % basal

**Q.** With `CC(C)NCC(O)c1ccc(O)c(O)c1` (stereo not drawn) [Isoproterenol, reference compound] as the compound, how does the “Cyclic AMP (pmol/mg protein)” value (cyclic AMP) read?
**A.** 373.0 ± 84.0 (6) pmol/mg protein

**Q.** And the “Cyclic GMP … (10 μM)” value (cyclic GMP)?
**A.** 45.2 ± 1.6 (4) fmol/mg protein

**Q.** What about the “Mucin Secretion (% basal)” value (rat submandibular acini) of the same compound?
**A.** 785 ± 212 (6) % basal

**Q.** With `COc1ccc(C2CNC(=O)C2)cc1OC1CCCC1` (stereo not drawn) [Type IV, 4-(3-cyclopentyloxy-4-methoxyphenyl)-2-pyrrolidinone, reference compound] as the compound, how does the “Cyclic AMP (pmol/mg protein)” value (cyclic AMP) read?
**A.** **1908.7 ± 150.8 (6) pmol/mg protein

**Q.** What about the “Cyclic GMP … (10 μM)” value (cyclic GMP) of the same compound?
**A.** 45.2 ± 2.0 (4) fmol/mg protein

**Q.** What about the “Cyclic GMP … No Isoproterenol” value (cyclic GMP) of the same compound?
**A.** 40.1 ± 1.5 (3) fmol/mg protein

**Q.** What about the “Correction” value (CFTR [1]) of the same compound?
**A.** as effective as cpt-cAMP

**Q.** What about the “Mucin Secretion (% basal)” value (rat submandibular acini) of the same compound?
**A.** 708 ± 220 (6) % basal

**Q.** For `CCCOc1ccccc1-c1nc2[nH]cnc2c(=O)[nH]1` [Type V, 1,7-dihydro-2-(2-propoxyphenyl)-6H-purin-6-one], which “Cyclic AMP (pmol/mg protein)” value (cyclic AMP) is on record?
**A.** 375.5 ± 95.8 (6) pmol/mg protein

**Q.** What about the “Cyclic AMP (pmol/mg protein)” value (cyclic AMP; listed as Type V PDE inhibitor) of the same compound?
**A.** did not potentiate

**Q.** And the “Cyclic GMP … (10 μM)” value (cyclic GMP)?
**A.** **64.3 ± 3.6 (5) fmol/mg protein

**Q.** And the “Cyclic GMP … No Isoproterenol” value (cyclic GMP)?
**A.** *47.3 ± 2.5 (5) fmol/mg protein

**Q.** What about the “Correction” value (CFTR [1]) of the same compound?
**A.** as effective as cpt-cAMP

**Q.** And the “Mucin Secretion (% basal)” value (rat submandibular acini)?
**A.** 755 ± 243 (6) % basal

**Q.** For `CCCOc1ccccc1-c1nc2[nH]cnc2c(=O)[nH]1` [a)], which “cyclic AMP % basal” value (cyclic AMP) is on record?
**A.** 100 % basal

**Q.** And the “cyclic GMP % basal” value (cyclic GMP)?
**A.** 140 % basal

**Q.** What about the “Mucin secretion % basal” value (rat submandibular acini) of the same compound?
**A.** 120 % basal

**Q.** What does the source list for `CCCOc1ccccc1-c1nc2cnccc2c(=O)[nH]1` [b)]?
**A.** cyclic AMP % basal (cyclic AMP): 600* % basal; cyclic GMP % basal (cyclic GMP): 130 % basal; IC50 (PDE V): 0.55 µM; Mucin secretion % basal (rat submandibular acini): 180* % basal

**Q.** For `CNc1ncc2c(=O)[nH]c(-c3ccccc3OC)nc2n1` [c)], which “cyclic AMP % basal” value (cyclic AMP) is on record?
**A.** 250* % basal

**Q.** What about the “cyclic GMP % basal” value (cyclic GMP) of the same compound?
**A.** 90 % basal

**Q.** And the IC50 (PDE V; read-out: PDE V IC50)?
**A.** 22 µM

**Q.** And the “Mucin secretion % basal” value (rat submandibular acini)?
**A.** 160* % basal

**Q.** Which results are given for `COc1ccccc1-c1nc2cccnc2[nH]1` [d)]?
**A.** cyclic AMP % basal (cyclic AMP): 600* % basal; cyclic GMP % basal (cyclic GMP): 90 % basal; IC50 (PDE V; read-out: PDE V IC50): 34 µM; Mucin secretion % basal (rat submandibular acini): 200* % basal

**Q.** For `CCCOc1ccccc1-c1nc2nc(N)ncc2c(=O)[nH]1` [e)], which “cyclic AMP % basal” value (cyclic AMP) is on record?
**A.** 350* % basal

**Q.** What about the “cyclic GMP % basal” value (cyclic GMP) of the same compound?
**A.** 130 % basal

**Q.** And the IC50 (PDE V; read-out: PDE V IC50)?
**A.** 0.65 µM

**Q.** And the “Mucin secretion % basal” value (rat submandibular acini)?
**A.** 170* % basal

**Q.** Which “cyclic AMP % basal” value (cyclic AMP) does the source give for `CCOc1ccccc1-c1nc2[nH]cnc2c(=O)[nH]1` [f)] here?
**A.** 100 % basal

**Q.** And the “cyclic GMP % basal” value (cyclic GMP)?
**A.** 110 % basal

**Q.** What about the IC50 (PDE V; read-out: PDE V IC50) of the same compound?
**A.** 4.5 µM

**Q.** And the “Mucin secretion % basal” value (rat submandibular acini)?
**A.** 160* % basal

**Q.** Which “cyclic AMP % basal” value (cyclic AMP) does the source give for `CCCCOc1ccccc1-c1nc2cccnc2[nH]1` [g)] here?
**A.** 160* % basal

**Q.** What about the “cyclic GMP % basal” value (cyclic GMP) of the same compound?
**A.** 110 % basal

**Q.** What about the IC50 (PDE V; read-out: PDE V IC50) of the same compound?
**A.** 0.75 µM

**Q.** What about the “Mucin secretion % basal” value (rat submandibular acini) of the same compound?
**A.** 200* % basal

**Q.** Which results are given for `O=c1[nH]c(-c2ccccc2O)nc2[nH]cnc12` [h)]?
**A.** cyclic AMP % basal (cyclic AMP): 100 % basal; cyclic GMP % basal (cyclic GMP): 110 % basal; IC50 (PDE V; read-out: PDE V IC50): 48 µM; Mucin secretion % basal (rat submandibular acini): 180* % basal

**Q.** Which results are given for `CCCOc1ccccc1-c1nc2nc(NCC(C)O)ncc2c(=O)[nH]1` (stereo not drawn) [i)]?
**A.** cyclic AMP % basal (cyclic AMP): 100 % basal; cyclic GMP % basal (cyclic GMP): 90 % basal; IC50 (PDE V; read-out: PDE V IC50): 0.2 µM; Mucin secretion % basal (rat submandibular acini): 170* % basal

**Q.** Which results are given for `CCOc1ccccc1-c1nc2[nH]c(=O)[nH]c2c(=O)[nH]1` [j)]?
**A.** cyclic AMP % basal (cyclic AMP): 100 % basal; cyclic GMP % basal (cyclic GMP): 140* % basal; IC50 (PDE V; read-out: PDE V IC50): 1.3 µM; Mucin secretion % basal (rat submandibular acini): 160* % basal
